Assay results from US11957699B2, “Composition comprising punicalagin for inhibiting PAR2 activity” (INDUSTRY-ACADEMIC COOPERATION FOUNDATION, YONSEI UNIVERSITY, priority 2018, dated 2024).

Columns and labels:
[1] = system: heart, liver, and lung tissues of lupus mice; experiment: Histology (hematoxylin-eosin) of heart, liver and lung of lupus mice; format: in vivo; settings: 3 mg/kg, 1 mg/kg, and 0.3 mg/kg; vs saline or methylprednisolone groups
Experimental: (§1) In order to determine the toxicity of punicalagin, the effect of NIH3T3 cells on cell viability and the weight change of 8-week-old wild-type mice were evaluated, and the heart, liver, and lung were extracted from 30-week-old lupus mice and were histologically evaluated by performing hematoxylin-eosin staining.

[2] = system: SD rats with colitis induced by TNBS; experiment: Colitis induced by trinitrobenzene sulfonic acid (TNBS) in rats; format: in vivo; settings: 1, 3 and 10 mg/kg intraperitoneally for 3 days
Experimental: Specifically, 80 mg/kg TNBS was diluted in 50% ethanol and injected into the anus of rats, and punicalagin (1, 3, and 10 mg/kg) was intraperitoneally injected for 3 days. As control groups, a group which was intraperitoneally injected with PBS and treated with 50% ethanol only (n=3) and a group which was intraperitoneally injected with PBS and was treated only with TNBS (n=3) were established, and weight change was measured. After 3 days, the rats of each group were sacrificed, the colon was extracted to measure the length, and the spleen was extracted and weighed.

PAR2 [3] = target: T1, PAR2 (Homo sapiens, UniProt P55085); experiment: Intracellular calcium increase by trypsin (PAR2 receptor activation) in HaCaT keratinocytes; format: cell-based; design: endogenous in cells; host or cells: HaCaT keratinocytes
T1 sequence (P55085 26-397): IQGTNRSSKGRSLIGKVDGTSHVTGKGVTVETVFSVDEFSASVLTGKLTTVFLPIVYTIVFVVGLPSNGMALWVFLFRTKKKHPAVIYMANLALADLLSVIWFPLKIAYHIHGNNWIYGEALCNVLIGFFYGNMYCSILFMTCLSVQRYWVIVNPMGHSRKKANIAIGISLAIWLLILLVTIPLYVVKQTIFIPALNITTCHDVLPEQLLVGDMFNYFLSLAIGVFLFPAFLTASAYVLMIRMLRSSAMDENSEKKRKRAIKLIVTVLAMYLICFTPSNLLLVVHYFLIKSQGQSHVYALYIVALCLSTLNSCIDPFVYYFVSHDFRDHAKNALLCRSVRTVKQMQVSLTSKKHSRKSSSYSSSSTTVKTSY
Experimental: After keratinocytes (HaCaT) were cultured for 48 hours in a 96-well micro plate with the DMEM culture medium, the culture medium was removed, and then, 100 μL of the Flou4-NW dye mixture was added. While blocking the light, it was stabilized for 1 hour such that a calcium ion dye (Ca^2+ dye) was loaded into the cells. 100 μM punicalagin was treated, and the concentration change of intracellular calcium ions was measured for 5 minutes (panel A of FIG. 17). Next, punicalin (0, 1, 3, 10, 20, 30, 100, and 300 μM) by concentration (panel B of FIG. 17) or punicalagin (0, 1, 3, 5, 10, 20, 30, and 100 μM) by concentration (panel C of FIG. 17) was treated for 10 minutes, and then, each well was treated with 0.1 μM trypsin to measure the concentration change of intracellular calcium ions according to PAR2 receptor activation.

PAR2 [4] = target: T1, PAR2; experiment: Cytokine secretion by PAR2-AP in primary cultured human conjunctival epithelial cells (ELISA); format: cell-based; design: endogenous in cells; settings: 10 μM, 100 μM PAR2-AP, 24 hours
Experimental: In order to determine whether punicalagin inhibits cytokine secretion by PAR2 receptor activity, human conjunctival epithelial cells, which were primary cultured and differentiated in a transwell, were treated with 100 μM PAR2-AP or 10 μM punicalagin for 24 hours, and then, by collecting the culture medium from the apical membrane, cytokine concentrations were measured by the enzyme-linked immunosorbent assay.

carbonic anhydrase = settings: cited from earlier work
PAR2 [5] = target: T1, PAR2; experiment: Increase of intracellular calcium ions by PAR2-AP in HT-29 cells (Fluo4-NW); format: cell-based; design: endogenous in cells; host or cells: HT-29 colon cancer cells; settings: HT-29 cells
Experimental: After colon cancer cells (HT-29) were cultured for 48 hours in a 96-well micro plate with the RPMI1640 culture medium, the culture medium was removed, and then, 100 μL of the Flou4-NW dye mixture was added. While blocking the light, it was stabilized for 1 hour such that a calcium ion dye (Ca^2+ dye) was loaded into the cells. Next, after treating punicalin (0, 3, 10, and 30 μM), punicalagin (0, 0.3, 1, 2, 3, and 10 μM), or ellagic acid (0, 30, and 100 μM) for 10 minutes by concentration, each well was treated with 30 μM PAR2-AP (PAR2-activating peptide, SLIGRL-NH2) to measure the concentration change in intracellular calcium ions.

[6] = Weight change of wild-type mice; format: in vivo; settings: 10 mg/kg intraperitoneally at 2-day intervals
Experimental: as §1

[7] = rats, 6% punicalagin diet for 37 days; cited from earlier work
PAR2 [8] = target: T1, PAR2; experiment: Cellular signal changes and inflammatory cytokine secretion by PAR2 receptor activity in human glomerular podocytes; format: cell-based; design: endogenous in cells
Experimental: The effects of punicalagin on cellular signal changes and inflammatory cytokine secretion by PAR2 receptor activity in human glomerular podocytes were evaluated.

[9] = system: C57BL6N mice with pruritus induced by PAR2-AP; experiment: Pruritus induced by PAR2-AP in mice (number of scratches); format: in vivo; settings: for number of scratches during the initial 10 minutes: saline group 104; for number of scratches for 40 minutes: PAR2-AP group about 240
Experimental: In seven-week-old C57BL6N mice, it was confirmed whether punicalagin (PG) has an effect of alleviating pruritus symptoms induced by PAR2 receptor activation by PAR2-AP (activating peptide). In addition, the effects of punicalin (PNC) and ellagic acid (EA), which are metabolites of punicalagin and contained in pomegranate peel in a large amount, were also confirmed.
Specifically, each of 0, 1, 3, and 10 mg/kg punicalagin (n=4) was dissolved in physiological saline and intraperitoneally injected, and after 30 minutes, 100 μg of PAR2-AP was intradermally injected to induce pruritus. As control groups, a group which was intraperitoneally injected with physiological saline only (n=4) and a group which was intraperitoneally injected with 10 mg/kg punicalagin (n=4) were established, and the number of scratches was measured for 40 minutes.

O=CC1OC(=O)c2cc(O)c(O)c(O)c2-c2c(cc(O)c(O)c2O)C(=O)OC1C1OC(=O)c2cc(O)c(O)c(O)c2-c2c(O)c(O)c3oc(=O)c4c(c(O)c(O)c5oc(=O)c2c3c54)-c2c(cc(O)c(O)c2O)C(=O)OCC1O (stereo not shown) [punicalagin, 1,2,3,11,12,13-hexahydroxy-5,10-dioxo-8-[3,4,5,11,17,18,19,22,23,34,35-undecahydroxy-8,14,26,31-tetraoxo-9,13,25,32-tetraoxaheptacyclo[25.8.0.0^2,7.0^15,20.0^21,30.0^24,29.0^28,33]pentatnaconta-1(35),2,4,6,15,17,19,21,23,27,29,33-dodecaen-10-yl]-5,7,8,10-tetrahydrodibenzo[f,h][1,4]dioxecin-7-carbaldehyde]
histological difference in heart, liver, and lung tissues [1]: no histological difference | colon tissue damage caused by TNBS [2]: inhibited colon tissue damage caused by TNBS in a concentration-dependent manner | concentrations of inflammatory cytokines (INF-γ, IL-2, IL-4, IL-6, IL-β, TNF-α, IL-1β, etc.) increased by TNBS [2]: significantly decreased | colon length reduction by TNBS ([2]; concentration-dependent): significantly inhibited | weight increase of the spleen by TNBS ([2]; concentration-dependent): significantly inhibited | weight loss by TNBS ([2]; concentration-dependent): significantly inhibited | effect on the concentration of intracellular calcium ions in keratinocytes (without trypsin) (PAR2 [3]; 100 μM, 5 minutes): no effect | inhibition of PAR2 receptor activity by trypsin (PAR2 [3]; HaCaT, 0.1 μM trypsin, 10 minutes pretreatment): inhibited PAR2 receptor activity by trypsin in a concentration-dependent manner | IC50 (PAR2 [3]; HaCaT, 0.1 μM trypsin, read-out: IC50, inhibition of the PAR2 receptor (calcium increase by trypsin)): 5.24 µM | strength of PAR2 receptor inhibition compared to punicalin (PAR2 [3]; HaCaT, trypsin): ≥ 3.7 times | inhibition of GMCSF induced by PAR2-AP (PAR2 [4]): 66.8% | inhibition of interleukin-6 (IL-6) induced by PAR2-AP (PAR2 [4]): 59.5% | inhibition of interleukin-8 (IL-8) induced by PAR2-AP (PAR2 [4]): 61.6% | activity against carbonic anhydrase (carbonic anhydrase): inhibitory activity | IC50 (PAR2 [5]; 30 μM PAR2-AP, 10 minutes pretreatment, read-out: IC50, inhibition of the PAR2 receptor (intracellular calcium increase by PAR2-AP)): 1.45 µM | strength of PAR2 receptor inhibition compared to punicalin (PAR2 [5]; PAR2-AP): ≥ 10 times | weight change in wild-type mice [6]: no weight change | toxicity [7]: no toxicity | expression amounts of VCAM-1 and ICAM-1 increased by PAR2 receptor activity (PAR2 [8]): significantly reduced | expressions of inflammatory cytokines (IL-6, IFN-γ, TNF-α, and IL-8) (PAR2 [8]; concentration-dependent): significantly reduced | phosphorylation of ERK 1/2 according to PAR2 receptor activity by PAR2-AP (PAR2 [8]; concentration-dependent): inhibited | phosphorylation of NF-κB P65 according to PAR2 receptor activity (PAR2 [8]; concentration-dependent): inhibited | number of scratches during the initial 10 minutes ([9]; 1 mg/kg intraperitoneally, 100 μg PAR2-AP intradermally): about 59 times | number of scratches for 40 minutes ([9]; 1 mg/kg): about 188 times | number of scratches during the initial 10 minutes ([9]; 3 mg/kg intraperitoneally): ~28 times | number of scratches for 40 minutes ([9]; 3 mg/kg): ~103 times | number of scratches during the initial 10 minutes ([9]; 10 mg/kg intraperitoneally): ~14 times | number of scratches for 40 minutes ([9]; 10 mg/kg): ~40 times
